Test results reported in patent US8742117B2, “Oxime derivatives” (Cadila Healthcare Limited, priority 2008, dated 2014).

How the values were obtained:
Sprague Dawley rats = test: Feed intake in Sprague Dawley rats; assay type: in vivo, rat; settings: 25 mg/kg i.p., cumulative feed intake vs vehicle control
Excerpt: In Vivo Efficacy Studies: Feed Intake in Sprague Dawley Rats:
Sprague Dawley rats of 6-8 week age were be used for this experiment they were be kept for acclimatization in reversed light/dark cycle for 15 days. Animals will have free access to a standard chow diet and water during acclimatization period. After 15 days reversed light/dark cycle acclimatization animals were trained for fasting induced feed intake for 5 days till they show consistent feed intake. Grouping was done based on the monitored feed intake the training days. On treatment day each group of animals were dosed with test compound or vehicle by appropriate routes of administration (orally or intraperitoneally). Exactly 30 min. after treatment, measured amount of standard chow diet was provided and recorded as 0-min feed offered. Then subsequently 2, 4, 6 and 24 hour after 0-min, feed intake was measured and the cumulative feed intakes were calculated. The change in cumulative feed intake as compare to vehicle treated control at each time point was calculated for test compound and results were provided in table 2

human GPR 119 receptor = biological target: T1, human GPR 119 receptor (Homo sapiens, UniProt Q8TDV5); test: cAMP assay in stable cell line expressing recombinant human GPR 119 receptor; assay type: cell-based; settings: 1 μM; intracellular cAMP, recombinant human GPR 119 cell line
T1 construct: expressed in transfected cells
T1 sequence (Q8TDV5 1-335): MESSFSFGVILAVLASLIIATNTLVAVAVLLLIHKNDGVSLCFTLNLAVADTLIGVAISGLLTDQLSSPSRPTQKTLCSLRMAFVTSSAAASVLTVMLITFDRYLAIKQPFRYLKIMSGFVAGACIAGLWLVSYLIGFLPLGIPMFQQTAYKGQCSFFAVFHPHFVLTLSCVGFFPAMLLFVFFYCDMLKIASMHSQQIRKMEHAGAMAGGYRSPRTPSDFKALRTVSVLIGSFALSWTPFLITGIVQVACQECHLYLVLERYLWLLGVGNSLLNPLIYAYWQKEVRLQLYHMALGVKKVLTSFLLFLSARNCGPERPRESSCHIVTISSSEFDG
Excerpt: A stable cell line expressing recombinant human GPR 119 receptor was established and used to investigate the efficacy of the compounds of the invention based on the intracellular levels of cyclic AMP (cAMP) using commercially available cAMP kits. Compounds of the invention produced a concentration dependent increase in cAMP level and EC50 values of representative compounds were provided in table 1 and table 2 respectively.

C57/BL6 mice = test: Oral glucose tolerance test (OGTT) in C57/BL6 mice; assay type: in vivo, mouse; settings: 30 mg/kg oral single dose; glucose load 3 gm/kg; serum glucose AUC
Experimental: Oral Glucose Tolerance Tests (OGTT) in C57/BL6 Mice:
C57/BL6 mice of 6-8 week age were used for this experiment. Animals were grouped based on non-fasting serum glucose levels and kept on fasting for overnight (day before OGTT). On the experiment day, each animal received a single dose of vehicle/test compounds (30 mg/kg) were administered orally, 30 min post dosing animals were bled for basal glucose level estimation and at same time glucose load (3 gm/kg) will be administered per orally. Blood was collected at time points corresponding to 20, 40, 60 and 120 min after glucose load administration. Serum was separated for determination of glucose levels and change in area under curve for glucose was calculated and provided in table 3 as % reduction in AUC.

| SMILES | % activity at 1 μM (human GPR 119 receptor) | % reduction in food in take 2 hour (Sprague Dawley rats) | % reduction in food in take 4 hour (Sprague Dawley rats) | % reduction in food in take 6 hour (Sprague Dawley rats) | % reduction in food in take 24 hour (Sprague Dawley rats) | % reduction in AUC at 30 mg/kg (C57/BL6 mice) |
| --- | --- | --- | --- | --- | --- | --- |
| CC(=NOc1ncnc(N2CCC(c3nc(C(C)C)no3)CC2)c1C)c1ccc(S(C)(=O)=O)cc1F [Example 6, 1-(2-fluoro-4-(methylsulfonyl)phenyl)ethanone O-6-(4-(3-isopropyl-1,2,4-oxadiazol-5-yl)piperidin-1-yl)-5-methylpyrimidin-4-yl oxime] | 49.55% | 57% | 52% | 33.3% | 15.1% | 20% |
| CC(=NOc1ncnc(N2CCC(c3nc(C(C)C)no3)CC2)c1[N+](=O)[O-])c1cccnc1 [Example 10, 1-(pyridin-3-yl)ethanone O-6-(4-(3-isopropyl-1,2,4-oxadiazol-5-yl)piperidin-1-yl)-5-nitropyrimidin-4-yl oxime] | 31.37% | 38% | 31% | 25.4% | 10% | – |
| CC(=NOc1ncnc(N2CCC(c3nc(C(C)C)no3)CC2)c1[N+](=O)[O-])c1ccc(S(C)(=O)=O)cc1 [Example 11, 1-(4-(methylsulfonyl)phenyl)ethanone O-6-(4-(3-isopropyl-1,2,4-oxadiazol-5-yl)piperidin-1-yl)-5-nitropyrimidin-4-yl oxime] | 103.98% | 76.2% | 43.1% | 36% | 17% | – |
| CC(=NOc1ncnc(N2CCC(c3nc(C(C)C)no3)CC2)c1[N+](=O)[O-])c1ccc(S(C)(=O)=O)cc1F [Example 14, 1-(2-fluoro-4-(methylsulfonyl)phenyl)ethanone O-6-(4-(3-isopropyl-1,2,4-oxadiazol-5-yl)piperidin-1-yl)-5-nitropyrimidin-4-yl oxime] | 89.97% | 53% | 48% | 37% | 16% | 20% |

The next lines start with results.

| % activity at 1 μM (human GPR 119 receptor) | SMILES | % reduction in food in take 2 hour (Sprague Dawley rats) | % reduction in food in take 4 hour (Sprague Dawley rats) | % reduction in food in take 6 hour (Sprague Dawley rats) | % reduction in food in take 24 hour (Sprague Dawley rats) | % reduction in AUC at 30 mg/kg (C57/BL6 mice) |
| --- | --- | --- | --- | --- | --- | --- |
| 79.21% | CC(=NOc1ncnc(N2CCC(c3nc(C(C)C)no3)CC2)c1C)c1ccc(C(F)(F)F)cc1 [Example 15, 1-(4-(trifluoromethyl)phenyl)ethanone O-6-(4-(3-isopropyl-1,2,4-oxadiazol-5-yl)piperidin-1-yl)-5-methylpyrimidin-4-yl oxime] | 41% | 27% | 24% | 11% | 23.4% |
| 78.54% | CC(=NOc1ncnc(N2CCC(c3nc(C(C)C)no3)CC2)c1C)c1ccc(OC(F)(F)F)cc1 [Example 16, 1-(4-(trifluoromethoxy)phenyl)ethanone O-6-(4-(3-isopropyl-1,2,4-oxadiazol-5-yl)piperidin-1-yl)-5-methylpyrimidin-4-yl oxime] | 43% | 25% | 16% | 4.5% | – |
| 18.5% | CC(=NOc1ncnc(N2CCC(c3nc(C(C)C)no3)CC2)c1C)c1ccc2ccccc2c1 [Example 22, 1-(naphthalen-2-yl)ethanone O-6-(4-(3-isopropyl-1,2,4-oxadiazol-5-yl)piperidin-1-yl)-5-methylpyrimidin-4-yl oxime] | 30% | 43% | 44% | 14% | – |
| 17.7% | CC(=NOc1ncnc(N2CCC(c3nc(C(C)C)no3)CC2)c1[N+](=O)[O-])c1ccc2ccccc2c1 [Example 23, 1-(naphthalen-2-yl)ethanone O-6-(4-(3-isopropyl-1,2,4-oxadiazol-5-yl)piperidin-1-yl)-5-nitropyrimidin-4-yl oxime] | 38% | 26% | 26% | 4% | – |
